Measurements as given in patent US8202865B2, “Oxadiazole derivatives” (Merck Serono SA, priority 2007, dated 2012).
pEC50, pKi: −log10 of the molar value. Counter-ions that a name gives are not always drawn.

Assays:
S1P1 [1] = molecular target: T1, S1P1 (Homo sapiens, UniProt P21453); assay: 35S-GTPγS binding, S1P1 membranes; assay type: biochemical; conditions: membranes from CHO cells expressing S1P1; 60 min 30° C.
T1 construct: expressed in transfected cells; host or cells: CHO cells (membranes)
Method in brief: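 CHO-cell membranes expressing S1P1 or S1P3 (1-10 μg) incubated with compounds in 20 mM HEPES pH 7.4, 10 mM MgCl2, 140 mM NaCl, saponin, 0.2% BSA, 1.7 μM GDP and [35S]-GTPγS (20 μl of 1.5 nM added), 60 min at 30° C. Bound radioactivity expressed as % of S1P activation.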

S1P3 = molecular target: T2, S1P3 (Homo sapiens, UniProt Q99500); assay: 35S-GTPγS binding, S1P3 membranes; assay type: biochemical; conditions: membranes from CHO cells expressing S1P3; 60 min 30° C.
T2 construct: expressed in transfected cells; host or cells: CHO cells (membranes)
Description: (§1) Receptor binding assay: Membranes were prepared from CHO cells expressing S1P1 or S1P3 for use in ligand and […] binding studies. Cells were suspended in 50 mM TRIS, pH 7.4, 2 mM EDTA, 250 mM Sucrose (buffer A) and 1× Complete protease inhibitor cocktail (Roche), and disrupted at 4° C. by N2 decompression using a cell disruption bomb (Parr Instrument). Following centrifugation at 1000 RPM for 10 min at 4° C., the supernatant was suspended in buffer A and centrifuged again at 19000 RPM for 60 min at 4° C. The pellet was then suspended in 10 mM HEPES, pH 7.4, 1 mM EDTA, 250 mM Sucrose (Buffer B), and 1× Complete EDTA-free protease inhibitor cocktail and homogenized using a potter. Membranes were flash frozen in liquid N2 and stored at −80° C. [33P]sphingosine 1-phosphate (3000 Ci/mmol; American Radiolabeled Chemicals, Inc.) was added to test compounds in DMSO. Membranes and WGA SPA beads (GE Healthcare) were added to give a final volume of 100 μl in 96-well plates with assay concentrations of 25 pM or 10 pM [33P]sphingosine 1-phosphate (respectively for S1P1 or S1P3), 50 mM HEPES, pH 7.5, 5 mM MgCl2, 100 mM NaCl, 0.4% fatty acid-free BSA, 1-5 μg/well of proteins and 100 μg/well of WGA SPA beads. Binding was performed for 60 min at RT on a shaker and bound radioactivity was measured on a PerkinElmer 1450 MicroBeta counter. Specific binding was calculated by subtracting remaining radioactivity in the presence of 1000-fold excess of unlabeled S1P. Binding data were analyzed using the GraphPad Prism program.
Measurements of ^35S-GTPγS Binding: Membranes (1 to 10 μg protein) prepared as described above, were incubated in 96-well Scintiplates (PerkinElmer) with test compounds diluted in DMSO, in 180 μl of 20 mM HEPES, pH 7.4, 10 mM MgCl2, 2 μg/well Saponin, 0.2% fatty acid free BSA (Assay buffer), 140 mM NaCl and 1.7 μM GDP. The assay was initiated with the addition of 20 μl of 1.5 nM [35S]-GTPγS (1100 Ci/mmol; GE Healthcare) in assay buffer. After 60 min incubation at 30° C. on a shaker, plates were centrifuged for 10 min at 2000 RPM. Supernatant was discarded and membrane bound radioactivity was measured on a PerkinElmer 1450 MicroBeta counter. Triplicate samples were averaged and expressed as % response relative to S1P activation in absence of compound (n=2).

S1P1 [2] = molecular target: T1, S1P1; assay: Receptor binding assay, [33P]sphingosine 1-phosphate, membranes, WGA SPA beads; conditions: membranes from CHO cells expressing S1P1; 25 pM [33P]S1P; 60 min RT
Description: as §1

T1 sequence (P21453 whole entry, species assumed): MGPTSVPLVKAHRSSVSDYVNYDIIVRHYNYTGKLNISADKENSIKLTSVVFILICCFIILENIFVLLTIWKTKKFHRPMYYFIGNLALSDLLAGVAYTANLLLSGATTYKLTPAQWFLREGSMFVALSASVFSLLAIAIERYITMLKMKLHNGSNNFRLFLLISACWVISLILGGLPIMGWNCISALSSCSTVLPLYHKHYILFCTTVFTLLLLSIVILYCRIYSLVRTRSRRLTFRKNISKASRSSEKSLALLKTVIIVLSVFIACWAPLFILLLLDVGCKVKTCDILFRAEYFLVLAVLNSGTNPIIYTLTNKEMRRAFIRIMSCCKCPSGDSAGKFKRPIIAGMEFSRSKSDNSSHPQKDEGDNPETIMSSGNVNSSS
T2 sequence (Q99500 whole entry, species assumed): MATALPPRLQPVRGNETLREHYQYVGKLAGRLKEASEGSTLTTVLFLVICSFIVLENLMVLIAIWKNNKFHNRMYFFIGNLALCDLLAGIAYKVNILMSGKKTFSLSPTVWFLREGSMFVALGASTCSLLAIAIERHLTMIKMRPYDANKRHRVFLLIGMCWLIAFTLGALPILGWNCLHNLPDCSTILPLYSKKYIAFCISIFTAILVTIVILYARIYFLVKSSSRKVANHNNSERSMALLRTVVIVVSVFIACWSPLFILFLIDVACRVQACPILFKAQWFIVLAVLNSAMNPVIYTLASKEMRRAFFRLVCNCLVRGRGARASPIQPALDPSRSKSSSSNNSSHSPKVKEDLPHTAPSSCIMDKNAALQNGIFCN

pEC50 (S1P1 [1])	pEC50 (S1P3)	pKi (S1P1 [2])	Structure (SMILES)
5.33	< 4.52	5.82	O=C(O)c1ccc(-c2noc(-c3ccc(-c4ccccc4Cl)cc3)n2)cc1F [Example 2, 4-[5-(2′-chlorobiphenyl-4-yl)-1,2,4-oxadiazol-3-yl]-2-fluorobenzoic acid]
6.50	< 4.52	6.90	Cc1ccccc1-c1ccc(-c2nc(-c3ccc(C(=O)O)c(F)c3)no2)cc1C [Example 4, 4-[5-(2,2′-dimethylbiphenyl-4-yl)-1,2,4-oxadiazol-3-yl]-2-fluorobenzoic acid]
6.03	< 4.52	–	COc1ccccc1-c1ccc(-c2nc(-c3ccc(C(=O)O)c(F)c3)no2)cc1C [Example 7, 2-fluoro-4-[5-(2′-methoxy-2-methylbiphenyl-4-yl)-1,2,4-oxadiazol-3-yl]benzoic acid]
6.87	< 4.52	7.40	Cc1cc(-c2nc(-c3ccc(C(=O)O)c(F)c3)no2)ccc1-c1cscc1C [Example 9, 2-fluoro-4-{5-[3-methyl-4-(4-methyl-3-thienyl)phenyl}-1,2,4-oxadiazol-3-yl]benzoic acid]
5.45	< 4.52	6.48	Cc1ccccc1-c1ccc(-c2nc(-c3ccc(C(=O)O)cc3F)no2)cc1C [Example 10, 4-[5-(2,2′-dimethylbiphenyl-4-yl)-1,2,4-oxadiazol-3-yl]-3-fluorobenzoic acid]
6.19	< 4.52	–	Cc1ccccc1-c1ccc(-c2nc(-c3ccc(C(=O)O)c(F)c3)no2)cc1[N+](=O)[O-] [Example 11, 2-fluoro-4-[5-(2′-methyl-2-nitrobiphenyl-4-yl)-1,2,4-oxadiazol-3-yl]benzoic acid]
6.83	< 4.52	7.22	COc1cc(-c2nc(-c3ccc(C(=O)O)c(F)c3)no2)ccc1-c1cscc1C [Example 12, 2-fluoro-4-{5-[3-methoxy-4-(4-methyl-3-thienyl)phenyl]-1,2,4-oxadiazol-3-yl}benzoic acid]
6.47	< 4.52	6.89	COc1cc(-c2nc(-c3ccc(C(=O)O)c(F)c3)no2)ccc1-c1ccccc1C [Example 13, 2-fluoro-4-[5-(2-methoxy-2′-methylbiphenyl-4-yl)-1,2,4-oxadiazol-3-yl]benzoic acid]
5.91	< 4.52	–	CC1CCCCN1c1ccc(-c2nc(-c3ccc(C(=O)O)c(F)c3)no2)cc1[N+](=O)[O-] (stereo not shown) [Example 15, 2-fluoro-4-{5-[4-(2-methylpiperidin-1-yl)-3-nitrophenyl]-1,2,4-oxadiazol-3-yl}benzoic acid]
6.46	< 4.52	6.96	CC1CCCCN1c1ccc(-c2nc(-c3ccc(C(=O)O)c(F)c3)no2)cc1C(F)(F)F (stereo not shown) [Example 19, 2-fluoro-4-{5-[4-(2-methylpiperidin-1-yl)-3-(trifluoromethyl)phenyl]-1,2,4-oxadiazol-3-yl}benzoic acid]
6.38	< 4.70	6.28	Cc1ccccc1-c1ccc(-c2nc(-c3ccc(C(=O)O)c(F)c3)no2)cc1C(F)(F)F [Example 22, 2-fluoro-4-{5-[2′-methyl-2-(trifluoromethyl)biphenyl-4-yl]-1,2,4-oxadiazol-3-yl}benzoic acid]
6.71	4.83	7.05	Cc1cscc1-c1ccc(-c2nc(-c3ccc(C(=O)O)c(F)c3)no2)cc1C(F)(F)F [Example 23, 2-fluoro-4-{5-[4-(4-methyl-3-thienyl)-3-(trifluoromethyl)phenyl]-1,2,4-oxadiazol-3-yl}benzoic acid]
6.44	< 4.70	6.76	Cc1cc(-c2nc(-c3ccc(C(=O)O)cc3F)no2)ccc1-c1cscc1C [Example 26, 3-fluoro-4-{5-[3-methyl-4-(4-methyl-3-thienyl)phenyl]-1,2,4-oxadiazol-3-yl}benzoic acid]
5.96	< 4.70	6.30	CC1CCCCN1c1ccc(-c2nc(-c3ccc(C(=O)O)cc3F)no2)cc1C(F)(F)F (stereo not shown) [Example 27, 3-fluoro-4-{5-[4-(2-methylpiperidin-1-yl)-3-(trifluoromethyl)phenyl]-1,2,4-oxadiazol-3-yl}benzoic acid]
6.08	< 4.52	6.72	COc1ncccc1-c1ccc(-c2nc(-c3ccc(C(=O)O)c(F)c3)no2)cc1C [Example 28, 2-fluoro-4-{5-[4-(2-methoxypyridin-3-yl)-3-methylphenyl]-1,2,4-oxadiazol-3-yl}benzoic acid]
6.53	< 4.70	–	CC(C)Oc1ncc(-c2nc(-c3ccc(OCC(=O)O)c(F)c3)no2)cc1Cl [Example 53, {4-[5-(5-chloro-6-isopropoxypyridin-3-yl)-1,2,4-oxadiazol-3-yl]-2-fluorophenoxy}acetic acid]
6.77	5.19	–	Cc1ccccc1-c1ccc(-c2nc(-c3ccc(C(=O)NCC(=O)O)c(F)c3)no2)cc1C [Example 54, N-{4-[5-(2,2′-dimethylbiphenyl-4-yl)-1,2,4-oxadiazol-3-yl]-2-fluorobenzoyl}glycine]
7.28	4.90	–	Cc1ccccc1-c1ccc(-c2nc(-c3ccc(C(=O)NCCC(=O)O)c(F)c3)no2)cc1C [Example 55, N-{4-[5-(2,2′-dimethylbiphenyl-4-yl)-1,2,4-oxadiazol-3-yl]-2-fluorobenzoyl}-beta-alanine]
6.25	5.64	–	COCc1ccccc1-c1ccc(-c2nc(-c3ccc(C(=O)O)c(F)c3)no2)cc1COC [Example 85, 4-{5-[2,2′-bis(methoxymethyl)biphenyl-4-yl]-1,2,4-oxadiazol-3-yl}-2-fluorobenzoic acid]
9.22	6.65	–	COCc1cc(-c2nc(-c3ccc(F)c(CN(C)CC(=O)O)c3)no2)ccc1N1CCCCC1C (stereo not shown) [Example 152, N-(2-fluoro-5-{5-[3-(methoxymethyl)-4-(2-methylpiperidin-1-yl)phenyl]-1,2,4-oxadiazol-3-yl}benzyl)-N-methylglycine, Dihydrochloride salt]
7.65	–	8.00	COCc1cc(-c2nc(-c3cccc(OCC(=O)O)c3)no2)ccc1-c1ccccc1C [Example 167, (3-{5-[2-(methoxymethyl)-2′-methylbiphenyl-4-yl]-1,2,4-oxadiazol-3-yl}phenoxy)acetic acid]
8.11	6.66	–	COCc1cc(-c2nc(-c3ccc(OCCCC(=O)O)c(F)c3)no2)ccc1-c1ccccc1C [Example 168, 4-(2-fluoro-4-{5-[2-(methoxymethyl)-2′-methylbiphenyl-4-yl]-1,2,4-oxadiazol-3-yl}phenoxy)butanoic acid]
8.22	–	8.70	COCc1cc(-c2nc(-c3ccc(C(=O)NCCC#N)c(F)c3)no2)ccc1-c1ccccc1C [Example 173, N-(2-cyanoethyl)-2-fluoro-{5-[2-(methoxymethyl)-2′-methylbiphenyl-4-yl]-1,2,4-oxadiazol-3-yl}benzamide]
8.30	–	8.15	COCCN(C)Cc1cccc(-c2noc(-c3ccc(-c4ccccc4C)c(COC)c3)n2)c1 [Example 185, 2-methoxy-N-(3-{5-[2-(methoxymethyl)-2′-methylbiphenyl-4-yl]-1,2,4-oxadiazol-3-yl}benzyl)-N-methylethanamine, Hydrochloride salt]
9.15	–	8.37	COCc1cc(-c2nc(-c3cccc(CCO)c3)no2)ccc1-c1ccccc1C [Example 190, 2-(3-{5-[2-(methoxymethyl)-2′-methylbiphenyl-4-yl]-1,2,4-oxadiazol-3-yl}phenyl)ethanol]
8.68	–	8.15	COCc1cc(-c2nc(-c3ccc(CO)cc3)no2)ccc1-c1ccccc1C [Example 191, (4-{5-[2-(methoxymethyl)-2′-methylbiphenyl-4-yl]-1,2,4-oxadiazol-3-yl}phenyl)methanol]
